Data: article PMC12392461, “Beyond Estrogenicity: A Comparative Assessment of Bisphenol A and Its Alternatives in In Vitro Assays Questions Safety of Replacements” (Environmental Science & Technology, 2025)
Like-named read-outs stand apart in the source and are kept apart here.

Legend:
[1] = target: T1, Peroxisome proliferator-activated receptor γ (Homo sapiens, UniProt P37231); assay: cell-based; conditions: for EC10, linear transformed / EC10, linear / logEC10: PPARγ bioassay; for EC10, linear: linear model; for logEC10: log-logistic model; for SR-ScorePPARγ: SR-Score, sigma k=1, x=5; for EC10, PPARγ: effect; for log(1/EC10) PPARγ: input of the ToxPi score, values up to 1.00; for Emax: read-out: Emax%PPARγ
T1 sequence (P37231 238-505 limits assumed): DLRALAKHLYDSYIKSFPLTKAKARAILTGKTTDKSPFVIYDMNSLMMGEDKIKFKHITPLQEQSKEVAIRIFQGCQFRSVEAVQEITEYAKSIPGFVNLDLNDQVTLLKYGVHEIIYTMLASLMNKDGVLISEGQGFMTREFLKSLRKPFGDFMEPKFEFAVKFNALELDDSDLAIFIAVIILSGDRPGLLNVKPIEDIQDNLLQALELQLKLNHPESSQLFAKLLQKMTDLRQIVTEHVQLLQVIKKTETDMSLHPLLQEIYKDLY
Summary of the method: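 Reporter cells (ERα-UAS-bla GripTite; PPARγ-UAS-bla) grew 24 h at 37 °C, 5% CO₂ in medium containing 2% charcoal-stripped FBS. Cytotoxicity, tracked as IncuCyte confluency, capped data at IC10 for EC10 derivation. Emax% is the fitted log-logistic maximum expressed against the reference chemical's maximum.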

MCF7 (ARE/MMP) = conditions: for IC10, MCF7, ARE: MCF7, ARE readout; for IC10, MCF7, MMP: MCF7, MMP readout
Summary of the method: (§1)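 Cells were seeded in 384-well plates for 24 h, then dosed in 11-step dilutions and exposed for 24 h at 37 °C. Viability came from IncuCyte confluency before and after exposure. Only concentrations below IC10 were used for EC10 or, for ARE, the concentration giving induction ratio 1.5 (ECIR1.5).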

HEK293H (PPARγ) = conditions: for IC10, HEK293, PPARγ: cytotoxicity, HEK293 (PPARγ assay cells)
Summary of the method: as §1

HEK293T (ERα) = conditions: for IC10, HEK293, ERα: HEK293 (ERα assay cells)
Summary of the method: as §1

H4IIe (AhR CALUX) = conditions: for IC10, linear: linear model fit; for IC10, H4IIe, AhR: H4IIe (AhR assay cells)
Summary of the method: as §1

[2] = Bioassay ARE, cytotoxicity, dosing range all, linear model fit
[3] = Bioassay ARE, cytotoxicity, dosing range all, log-logistic model fit
[4] = MMP bioassay cytotoxicity, dosing range all, linear model
[5] = MMP bioassay cytotoxicity, dosing range all, log-logistic model
[6] = PPARγ bioassay cytotoxicity, dosing range all
[7] = PPARγ bioassay cytotoxicity, dosing range all, linear model
[8] = PPARγ bioassay cytotoxicity, dosing range all, log-logistic model
[9] = Bioassay ERα, cytotoxicity, dosing range all
[10] = Bioassay ERα, cytotoxicity, dosing range all, linear model fit
[11] = Bioassay ERα, cytotoxicity, dosing range all, log-logistic model fit
[12] = Bioassay AhR, cytotoxicity, dosing range all
[13] = Bioassay AhR, cytotoxicity, dosing range all, log-logistic model fit
[14] = against baseline cytotoxicity, ARE readout
[15] = against baseline cytotoxicity, MMP readout
[16] = Bioassay ARE, cytotoxicity, dosing range all
[17] = MMP bioassay cytotoxicity, dosing range all

| SMILES | EC10, linear ([1]; dosing range all) | logEC10 ([1]; dosing range all) | SR-ScorePPARγ [1] | EC10, PPARγ [1] | log(1/EC10) PPARγ [1] | Emax [1] | IC10, linear (MCF7 (ARE/MMP); [2]) | logIC10 (MCF7 (ARE/MMP); [3]) | IC10, linear (MCF7 (ARE/MMP); [4]) | logIC10 (MCF7 (ARE/MMP); [5]) | IC10, linear transformed (HEK293H (PPARγ); [6]) | IC10, linear (HEK293H (PPARγ); [7]) | logIC10 (HEK293H (PPARγ); [8]) | Toxic ratio (TR) TRPPARγ (HEK293H (PPARγ); against baseline cytotoxicity) | IC10, HEK293, PPARγ (HEK293H (PPARγ)) | Toxic ratio (TR) TRERα (HEK293T (ERα); against baseline cytotoxicity) | IC10, HEK293, ERα (HEK293T (ERα); cytotoxicity) | IC10, linear (H4IIe (AhR CALUX); [12]) | logIC10 (H4IIe (AhR CALUX); [13]) | IC10, linear transformed (H4IIe (AhR CALUX); [12]) | further results |
| --- | --- | --- | --- | --- | --- | --- | --- | --- | --- | --- | --- | --- | --- | --- | --- | --- | --- | --- | --- | --- | --- |
| Cc1ccc(S(=O)(=O)NC(=O)Nc2cccc(OS(=O)(=O)c3ccc(C)cc3)c2)cc1 [Pergafast, N-(p-toluenesulfonyl)-N'-(3-(p-toluenesulfonyloxy)phenyl)urea] | 9.42E-07 | -6.17 | 1.00 | 0.671 µM | 0.87 | 16% | 4.06E-05 | no cytotoxicity | no cytotoxicity | no cytotoxicity | 1.21E-06 | 2.22E-05 | -4.72 | 2.74 | 19.1 µM | 4.31 | 12.1 µM | no cytotoxicity | no cytotoxicity | – | EC10, PPARγ (M) ([1]; 10% of maximum effect of rosiglitazone): 6.71 × 10^–7 M; EC10, linear transformed ([1]; dosing range all): 6.71E-07; Specificity ratio (SRbaseline) SRPPARγ ([1]; against baseline cytotoxicity): 77.74; Specificity ratio (SRcytotoxicity) SRPPARγ ([1]; against experimental cytotoxicity): 28.39; IC10, linear transformed (HEK293T (ERα); [9]): 8.23E-06; IC10, linear (HEK293T (ERα); [10]): 1.21E-05; logIC10 (HEK293T (ERα); [11]): -4.96 |
| CC(C)Oc1ccc(S(=O)(=O)c2ccc(O)cc2)cc1 [D8, 4-((4-Isopropoxyphenyl)sulfonyl)phenol] | 5.40E-06 | no effect | – | – | – | – | – | – | – | – | – | – | – | 0.93 | – | 0.36 | – | – | – | – | Toxic ratio (TR) TRARE (MCF7 (ARE/MMP); [14]): 0.06; Toxic ratio (TR) TRMMP (MCF7 (ARE/MMP); [15]): 0.06; logIC10 (MCF7 (ARE/MMP); human, 24 h): -2.67; IC10, linear (HEK293H (PPARγ)): no cytotoxicity; logIC10 (HEK293H (PPARγ); human, 24 h): -4.15; IC10, linear (HEK293T (ERα)): no cytotoxicity; logIC10 (HEK293T (ERα); human, 24 h): -3.73; Toxic ratio (TR) TRAhR (H4IIe (AhR CALUX); against baseline cytotoxicity): 2.94; logIC10 (H4IIe (AhR CALUX); rat, 24 h): -4.56 |
| CC1(C)[C@H](O)C(C)(C)[C@H]1O [Trans TMCD] | no effect | no effect | – | – | – | – | no cytotoxicity | no cytotoxicity | no cytotoxicity | no cytotoxicity | 1.52E-03 | no cytotoxicity | no cytotoxicity | – | – | – | – | 8.94E-03 | -1.99 | 1.03E-02 | IC10, linear transformed (HEK293T (ERα); ERα bioassay cytotoxicity, dosing range all): 5.38E-03; IC10, linear (HEK293T (ERα); ERα bioassay cytotoxicity, dosing range all, linear model): no cytotoxicity; logIC10 (HEK293T (ERα); ERα bioassay cytotoxicity, dosing range all, log-logistic model): no cytotoxicity |
| CC(C)(c1cc(Cl)c(O)c(Cl)c1)c1cc(Cl)c(O)c(Cl)c1 [TCBPA, 2,2',6,6'-Tetrachlorobisphenol A] | – | – | 1.00 | 0.155 µM | 0.96 | 32% | 8.16E-05 | -4.11 | 7.25E-05 | -4.03 | – | – | – | – | 18.4 µM | – | 15.1 µM | no cytotoxicity | -4.05 | 9.01E-05 | EC10, linear transformed ([1]; dosing range high): 4.16E-08; EC10, linear ([1]; dosing range high): 7.40E-08; logEC10 ([1]; dosing range high): -7.38; EC10, linear transformed ([1]; dosing range low): 1.55E-07; EC10, linear ([1]; dosing range low): 1.92E-07; logEC10 ([1]; dosing range low): -6.81; IC10, linear transformed (MCF7 (ARE/MMP); [16]): 7.84E-05; IC10, linear transformed (MCF7 (ARE/MMP); [17]): 9.30E-05; IC10, MCF7, ARE (MCF7 (ARE/MMP); cytotoxicity): 78.4 µM; IC10, MCF7, MMP (MCF7 (ARE/MMP); cytotoxicity): 93 µM; IC10, linear transformed (HEK293H (PPARγ); PPARγ bioassay cytotoxicity, dosing range high): 5.23E-06; IC10, linear (HEK293H (PPARγ); PPARγ bioassay cytotoxicity, dosing range high, linear model): 1.84E-05; logIC10 (HEK293H (PPARγ); PPARγ bioassay cytotoxicity, dosing range high, log-logistic model): -4.74; IC10, linear transformed (HEK293H (PPARγ); PPARγ bioassay cytotoxicity, dosing range low): 7.55E-07; IC10, linear (HEK293H (PPARγ); PPARγ bioassay cytotoxicity, dosing range low, linear model): no cytotoxicity; logIC10 (HEK293H (PPARγ); PPARγ bioassay cytotoxicity, dosing range low, log-logistic model): no cytotoxicity; IC10, linear transformed (HEK293T (ERα); [9]): 6.86E-06; IC10, linear (HEK293T (ERα); [10]): 1.51E-05; logIC10 (HEK293T (ERα); [11]): -4.77; IC10, H4IIe, AhR (H4IIe (AhR CALUX); cytotoxicity): 90.1 µM |
| CCC(C)(c1ccc(O)cc1)c1ccc(O)cc1 [BPB, 4,4'-(Butane-2,2-diyl)diphenol] | no effect | no effect | – | – | – | – | 3.87E-05 | -4.43 | 3.05E-05 | -4.46 | 2.50E-06 | 1.29E-05 | -4.83 | 0.61 | 14.8 µM | 0.43 | 20.9 µM | 6.98E-05 | -4.08 | 8.31E-05 | IC10, linear transformed (MCF7 (ARE/MMP); [16]): 3.73E-05; IC10, linear transformed (MCF7 (ARE/MMP); [17]): 3.51E-05; Toxic ratio (TR) TRARE (MCF7 (ARE/MMP); [14]): 0.58; Toxic ratio (TR) TRMMP (MCF7 (ARE/MMP); [15]): 0.62; IC10, MCF7, ARE (MCF7 (ARE/MMP); cytotoxicity): 37.3 µM; IC10, MCF7, MMP (MCF7 (ARE/MMP); cytotoxicity): 35.1 µM; IC10, linear transformed (HEK293T (ERα); Bioassay ERα, cytotoxicity, dosing range high): 6.28E-06; IC10, linear (HEK293T (ERα); Bioassay ERα, cytotoxicity, dosing range high, linear model fit): no cytotoxicity; logIC10 (HEK293T (ERα); Bioassay ERα, cytotoxicity, dosing range high, log-logistic model fit): -4.68; IC10, linear (HEK293T (ERα); Bioassay ERα, cytotoxicity, dosing range low, linear model fit): no cytotoxicity; logIC10 (HEK293T (ERα); Bioassay ERα, cytotoxicity, dosing range low, log-logistic model fit): no cytotoxicity; Toxic ratio (TR) TRAhR (H4IIe (AhR CALUX); against baseline cytotoxicity): 0.31; IC10, H4IIe, AhR (H4IIe (AhR CALUX); cytotoxicity): 69.8 µM |
| O=S(=O)(c1ccc(O)cc1)c1ccccc1O [2,4-BPS, 2,4'-Dihydroxydiphenyl sulfone] | no effect | no effect | – | – | – | – | – | – | – | – | – | – | – | – | – | – | – | – | – | – | Toxic ratio (TR) TRARE (MCF7 (ARE/MMP); human, 24 h): 0.77; Toxic ratio (TR) TRMMP (MCF7 (ARE/MMP); human, 24 h): 0.77; logIC10 (MCF7 (ARE/MMP); human, 24 h): -3.05; Toxic ratio (TR) TRPPARγ (HEK293H (PPARγ); human, 24 h): 2.23; logIC10 (HEK293H (PPARγ); human, 24 h): -3.73; Toxic ratio (TR) TRERα (HEK293T (ERα); human, 24 h): 1.27; logIC10 (HEK293T (ERα); human, 24 h): -3.36; Toxic ratio (TR) TRAhR (H4IIe (AhR CALUX); rat, 24 h): 3.11; logIC10 (H4IIe (AhR CALUX); rat, 24 h): -3.52 |
